Calls of active or inactive are those of the source. The rule behind the calls is not given here.
System: CCRIS mutagenicity, Ames/micronucleus/aberration tests
Assay: CCRIS mutagenicity studies
[1] = Test System: CHINESE HAMSTER V-79, Strain/Indicator: V-79/8-AZAGUANINE, Metabolic Activation: NONE, Method: STANDARD PLATE

## CC(=O)N(O)c1ccc2c(c1)Cc1ccccc1-2
Test System: AMES SALMONELLA TYPHIMURIUM, Strain/Indicator: TA98, Metabolic Activation: GUINEA PIG, LIVER, HEPATOCYTES
  mutagenic call: active; positive
Test System: AMES SALMONELLA TYPHIMURIUM, Strain/Indicator: TA98, Metabolic Activation: GUINEA PIG, LIVER, S-9, Method: STANDARD PLATE
  mutagenic call: active; positive
Test System: AMES SALMONELLA TYPHIMURIUM, Strain/Indicator: TA98, Metabolic Activation: HAMSTER, LIVER, HEPATOCYTES
  mutagenic call: active; positive
Test System: AMES SALMONELLA TYPHIMURIUM, Strain/Indicator: TA98, Metabolic Activation: HAMSTER, LIVER, S-9, Method: STANDARD PLATE
  mutagenic call: active; positive
Test System: AMES SALMONELLA TYPHIMURIUM, Strain/Indicator: TA98, Metabolic Activation: HUMAN, FETAL LIVER, S-9
  mutagenic call: active; positive
Test System: AMES SALMONELLA TYPHIMURIUM, Strain/Indicator: TA98, Metabolic Activation: MOUSE, LIVER, HEPATOCYTES
  mutagenic call: active; positive
Test System: AMES SALMONELLA TYPHIMURIUM, Strain/Indicator: TA98, Metabolic Activation: MOUSE, LIVER, S-9, Method: STANDARD PLATE
  mutagenic call: active; positive
Test System: AMES SALMONELLA TYPHIMURIUM, Strain/Indicator: TA98, Metabolic Activation: NONE, Method: STANDARD PLATE
  mutagenic call: active; positive
Test System: AMES SALMONELLA TYPHIMURIUM, Strain/Indicator: TA98, Metabolic Activation: RABBIT, LIVER, MICROSOMAL FRACTION, Method: STANDARD PLATE
  mutagenic call: active; positive
Test System: AMES SALMONELLA TYPHIMURIUM, Strain/Indicator: TA98, Metabolic Activation: RABBIT, LUNG, MICROSOMAL FRACTION, Method: STANDARD PLATE
  mutagenic call: active; positive
Test System: AMES SALMONELLA TYPHIMURIUM, Strain/Indicator: TA98, Metabolic Activation: RAT, LIVER, HEPATOCYTES
  mutagenic call: active; positive
Test System: AMES SALMONELLA TYPHIMURIUM, Strain/Indicator: TA98, Metabolic Activation: RAT, LIVER, S-9, AROCLOR 1254, Method: STANDARD PLATE
  mutagenic call: active; positive
Test System: AMES SALMONELLA TYPHIMURIUM, Strain/Indicator: TA98, Metabolic Activation: RAT, LIVER, S-9, Method: STANDARD PLATE
  mutagenic call: active; positive
Test System: AMES SALMONELLA TYPHIMURIUM, Strain/Indicator: TA98, Metabolic Activation: V-79 CELL HOMOGENATE, Method: PREINCUBATION
  mutagenic call: active; positive
Test System: AMES SALMONELLA TYPHIMURIUM, Strain/Indicator: TA1538, Metabolic Activation: NONE, Method: STANDARD PLATE
  mutagenic call: active; positive
Test System: AMES SALMONELLA TYPHIMURIUM, Strain/Indicator: TA1538, Metabolic Activation: RAT, LIVER, S-9, AROCLOR 1254, Method: STANDARD PLATE
  mutagenic call: active; positive
Test System: AMES SALMONELLA TYPHIMURIUM, Strain/Indicator: TA1538, Metabolic Activation: RAT, LIVER, S-9, KC500 OR PHENOBARBITAL, Method: LIQUID SUSPENSION
  mutagenic call: active; positive
Test System: AMES SALMONELLA TYPHIMURIUM, Strain/Indicator: YG1012, Metabolic Activation: NONE, Method: PREINCUBATION
  mutagenic call: active; positive
Test System: AMES SALMONELLA TYPHIMURIUM, Strain/Indicator: YG1019, Metabolic Activation: NONE, Method: PREINCUBATION
  mutagenic call: active; positive
Test System: AMES SALMONELLA TYPHIMURIUM, Strain/Indicator: YG1020, Metabolic Activation: NONE, Method: PREINCUBATION
  mutagenic call: active; positive
Test System: AMES SALMONELLA TYPHIMURIUM, Strain/Indicator: YG1024, Metabolic Activation: NONE, Method: PREINCUBATION
  mutagenic call: active; positive
Test System: CHINESE HAMSTER V-79, Strain/Indicator: V-79/6-THIOGUANINE, Metabolic Activation: NONE
  mutagenic call: active; positive
[1]
  mutagenic call: active; positive
Test System: E. COLI, Strain/Indicator: WP2 UVRA, Metabolic Activation: NONE, Method: STANDARD PLATE
  mutagenic call: inactive; negative
Test System: UDS GUINEA PIG HEPATOCYTES, Strain/Indicator: THY INCORP, Metabolic Activation: NONE, Method: LIQUID SCINTILLATION COUNTING
  mutagenic call: active; positive
Test System: UDS HAMSTER HEPATOCYTES, Strain/Indicator: THY INCORP, Metabolic Activation: NONE, Method: LIQUID SCINTILLATION COUNTING
  mutagenic call: active; positive
Test System: UDS HUMAN CELLS, Strain/Indicator: THY INCORP (NON-S-PHASE), Metabolic Activation: RAT, LIVER, S-9, PHENOBARBITAL, Method: LIQUID SCINTILLATION COUNTING
  mutagenic call: active; positive
Test System: UDS HUMAN FIBROBLASTS, Strain/Indicator: THY INCORP (NON-S-PHASE), Metabolic Activation: NONE, Method: AUTORADIOGRAPHY
  mutagenic call: active; positive
Test System: UDS HUMAN FIBROBLASTS, Strain/Indicator: THY INCORP (NON-S-PHASE), Metabolic Activation: NONE, Method: LIQUID SCINTILLATION COUNTING
  mutagenic call: active; positive
Test System: UDS HUMAN LYMPHOCYTES, Strain/Indicator: THY INCORP (NON-S-PHASE), Metabolic Activation: NONE, Method: LIQUID SCINTILLATION COUNTING
  mutagenic call: active; positive
Test System: UDS MOUSE HEPATOCYTES, Strain/Indicator: THY INCORP, Metabolic Activation: NONE, Method: LIQUID SCINTILLATION COUNTING
  mutagenic call: active; positive
Test System: UDS RAT HEPATOCYTES, Strain/Indicator: THY INCORP, Metabolic Activation: NONE, Method: LIQUID SCINTILLATION COUNTING
  mutagenic call: active; positive
Test System: UDS RODENT HEPATOCYTES, Strain/Indicator: THY INCORP (NON-S-PHASE), Method: AUTORADIOGRAPHY
  mutagenic call: active; positive
Test System: UDS RODENT HEPATOCYTES, Strain/Indicator: THY INCORP (NON-S-PHASE), Method: LIQUID SCINTILLATION COUNTING
  mutagenic call: active; positive

## CCOCc1c(O)cc2c(c1O)C(=O)c1ccccc1C2=O
Test System: AMES SALMONELLA TYPHIMURIUM, Strain/Indicator: TA97, Metabolic Activation: NONE, Method: PREINCUBATION
  mutagenic call: inactive; negative
Test System: AMES SALMONELLA TYPHIMURIUM, Strain/Indicator: TA97, Metabolic Activation: RAT, LIVER, S-9, AROCLOR 1254, Method: PREINCUBATION
  mutagenic call: active; positive
Test System: AMES SALMONELLA TYPHIMURIUM, Strain/Indicator: TA98, Metabolic Activation: NONE, Method: PREINCUBATION
  mutagenic call: active; positive
Test System: AMES SALMONELLA TYPHIMURIUM, Strain/Indicator: TA98, Metabolic Activation: RAT, LIVER, S-9, AROCLOR 1254, Method: PREINCUBATION
  mutagenic call: active; positive
Test System: AMES SALMONELLA TYPHIMURIUM, Strain/Indicator: TA98, Metabolic Activation: RAT, LIVER, S-9, PCB, Method: PREINCUBATION
  mutagenic call: active; positive
Test System: AMES SALMONELLA TYPHIMURIUM, Strain/Indicator: TA100, Metabolic Activation: NONE, Method: PREINCUBATION
  mutagenic call: active; positive
Test System: AMES SALMONELLA TYPHIMURIUM, Strain/Indicator: TA100, Metabolic Activation: RAT, LIVER, S-9, AROCLOR 1254, Method: PREINCUBATION
  mutagenic call: active; positive
Test System: AMES SALMONELLA TYPHIMURIUM, Strain/Indicator: TA100, Metabolic Activation: RAT, LIVER, S-9, PCB, Method: PREINCUBATION
  mutagenic call: active; positive
Test System: AMES SALMONELLA TYPHIMURIUM, Strain/Indicator: TA102, Metabolic Activation: NONE, Method: PREINCUBATION
  mutagenic call: active; positive
Test System: AMES SALMONELLA TYPHIMURIUM, Strain/Indicator: TA102, Metabolic Activation: RAT, LIVER, S-9, Method: PREINCUBATION
  mutagenic call: active; positive
Test System: AMES SALMONELLA TYPHIMURIUM, Strain/Indicator: TA1537, Metabolic Activation: NONE, Method: PREINCUBATION
  mutagenic call: active; positive
Test System: AMES SALMONELLA TYPHIMURIUM, Strain/Indicator: TA1537, Metabolic Activation: RAT, LIVER, S-9, AROCLOR 1254, Method: PREINCUBATION
  mutagenic call: active; positive
Test System: AMES SALMONELLA TYPHIMURIUM, Strain/Indicator: TA1537, Metabolic Activation: RAT, LIVER, S-9, Method: PREINCUBATION
  mutagenic call: active; positive
[1]
  mutagenic call: inactive; negative
Test System: CHINESE HAMSTER V-79, Strain/Indicator: V-79/8-AZAGUANINE, Metabolic Activation: PRIMARY RAT HEPATOCYTES, Method: STANDARD PLATE
  mutagenic call: active; positive
